In PMC12457114, “Comparison of the pharmacokinetic profiles of three triterpenoids after oral administration of a cucurbitacin tablet and nanosuspension by UHPLC-MS/MS” (Frontiers in Pharmacology, 2025):

Key:
[1] = Stability of the analytes in rat plasma under different storage conditions; format: in vitro ADME; conditions: for Stability (RE%) Post-preparative / Stability (RE%) Short-term / Stability (RE%) Long-term / Stability (RE%) Freeze-thaw: rat plasma, n = 6; for Stability (RE%) Post-preparative / Stability in rat plasma (in words): 12 h at 4 °C post-sample preparation; for Stability (RE%) Short-term: ambient temperature (25 °C) for 4 h; for Stability (RE%) Long-term / Stability in rat plasma (in words): storage at −20 °C; for Stability (RE%) Freeze-thaw: three freeze-thaw cycles (−20 °C/room temperature); for Stability in rat plasma (in words): 25 °C for 4 h, three freeze-thaw cycles
Text: Table 5 outlines the stability of LQC, MQC, and HQC in the rat plasma under different storage conditions.

[2] = Pharmacokinetic study in rats after oral administration of CUT and MP-NPs, plasma by UHPLC-MS/MS; conditions: male, Sprague Dawley, in vivo, n = 6, mean ± SD
Experimental: An Agilent 6430 triple quadrupole mass spectrometer with an ESI source interface (Agilent Technologies, Santa Clara, CA, United States) was used in conjunction with an Agilent 1290 UHPLC system (Agilent Technologies). A Waters ACQUITY HSS T3 Column (1.8 μm, 2.1 × 100 mm) (Waters, Manchester, UK) was also used for the separations. Gradient elution was performed using water (A) and methanol (B) as mobile phases. The gradient elution procedure was used for 0.0–1.0 min, 80%–80% B; 1.0–1.5 min, 80%–90% B; 1.5–3.0 min, 90%–90% B; 3.0–3.2 min, 90%–80% B; and 3.2–4 min, 80%–80% B. The analytical temperature was 35 °C, and the flow rate was 0.3 mL/min. An injection of 5 μL volume was administered, after which the needle was washed. Positive ion-mode analysis was performed for the samples. The capillary voltage was set to 4500 V, source temperature to 100 °C, and the desolvation temperature to 350 °C ([Wang et al., 2014]). High-purity nitrogen was used as the nebulizing gas, and nitrogen was used as the drying gas at a flow rate of 11 L/min. The Agilent Mass Hunter workstation was used to gather the experimental data ([Wang Z et al., 2023]).
A total of 12 male Sprague Dawley (SD) rats (weight: 220 ± 20 g) were provided by the Animal Experiment Center of Heilongjiang University of Traditional Chinese Medicine (Production license number: SYXK (Hei) 2021-010). The Laboratory Animal Ethics Committee of Heilongjiang University of Traditional Chinese Medicine approved the study (Approval No.: 2024053114).
Animals were randomly assigned to the following two experimental groups (n = 6 per group): CUT and MP-NPs. Treatments were administered once daily for seven consecutive days, with the plasma sampling performed at predetermined time points after administration. Dosage was calculated based on human-equivalent doses converted to rat pharmacokinetic parameters using interspecies scaling factors. The human-rat dose conversion procedure was used to determine the dose of CUT per rat to be 0.03 g. The recommended daily dosage for humans is 6 tablets. The dose of MP-NPs per rat was determined to be 0.06 g per rat using the human-rat dose conversion formula, whereas the dose of P. Melo for human usage was 3 g, with reference to the Pharmacopoeia of the People’s Republic of China 2025.
At 0.083, 0.25, 0.50, 1, 1.5, 2, 2.5, 3, 4, 6, 8, 12, and 24 h following oral administration of CUT and MP-NPs, 0.25 mL of plasma samples were sampled by rapidly collecting and centrifuging at 4 °C, followed by freezing at −20 °C for further analysis ([Yu et al., 2023]).
Blank plasma sample (100 μL) was vortexed for 60 s after adding 100 μL of IS. To guarantee complete extraction, 3 mL of dichloromethane was then added to each sample, followed by vortexing for 120 s. Subsequently, the samples were centrifuged for 10 min at 4 °C and 3,500 rpm. At 40 °C, the […] organic phase was carefully moved into a sterile tube, dried off with a mild stream of nitrogen gas, and then reconstituted in 100 μL of the original mobile phase. Following a 120 s vortex, the extracts were filtered through a 0.22 μm Millipore filter before subjecting them to quantitative analyses by injecting 5 μL of them into the UHPLC-MS/MS apparatus.
The established UHPLC-MS/MS method was applied to simultaneously measure the plasma concentrations of the three analytes in rats following dose administration. Pharmacokinetic parameters have attracted attention in exploring drug absorption and distribution. These parameters include T 1/2, C max, T max, and AUC (Table 6). The pharmacokinetics of SD rats following oral administration of CUT and MP-NPs were investigated through UHPLC-MS/MS. The plasma concentrations of the three analytes were calculated. […] The MP-NPs group reached C max more rapidly than the CUT group.

[3] = HQC (spiked 300.2 CuB, 600.2 CuD, 300.8 CuE ng/mL)
[4] = LQC (spiked 5.272 CuB, 25.30 CuD, 5.257 CuE ng/mL)
[5] = MQC (spiked 150.1 CuB, 300.1 CuD, 150.4 CuE ng/mL)
[6] = CUT group, oral cucurbitacin tablet 0.03 g per rat
[7] = MP-NPs group, oral MP-NPs(PVP-K30) 0.06 g per rat

| Compound | Stability (RE%) Post-preparative [1, 3] | Stability (RE%) Short-term [1, 3] | Stability (RE%) Long-term [1, 3] | Stability (RE%) Freeze-thaw [1, 3] | Stability (RE%) Post-preparative [1, 4] | Stability (RE%) Short-term [1, 4] | Stability (RE%) Long-term [1, 4] | Stability (RE%) Freeze-thaw [1, 4] | Stability (RE%) Post-preparative [1, 5] | Stability (RE%) Short-term [1, 5] | Stability (RE%) Long-term [1, 5] | Stability (RE%) Freeze-thaw [1, 5] | Stability in rat plasma (in words) [1] | AUC(0-inf) [2, 6] | AUC(0-t) [2, 6] | Cmax [2, 6] | Tmax [2, 6] | half-life [2, 6] | AUC(0-inf) [2, 7] | AUC(0-t) [2, 7] | further results |
| --- | --- | --- | --- | --- | --- | --- | --- | --- | --- | --- | --- | --- | --- | --- | --- | --- | --- | --- | --- | --- | --- |
| CC(C)(O)/C=C/C(=O)[C@](C)(O)[C@H]1[C@H](O)C[C@@]2(C)[C@@H]3CC=C4[C@@H](C[C@H](O)C(=O)C4(C)C)[C@]3(C)C(=O)C[C@]12C [CuD, cucurbitacin D] | 7.032% | −5.861% | −2.272% | −7.765% | −3.854% | 4.262% | 5.336% | −3.242% | −8.805% | −4.154% | −5.533% | −8.420% | remained stable | 1160 ng·h/mL | 1030 ng·h/mL | 339 ± 24.4 ng/mL | 1.83 ± 0.683 h | 5.33 ± 0.991 h | 1480 ng·h/mL | 1260 ng·h/mL | Cmax [2, 7]: 365 ± 69.9 ng/mL; Tmax [2, 7]: 1.75 ± 0.61 h; half-life [2, 7]: 6.97 ± 2.92 h |
| CC(=O)OC(C)(C)/C=C/C(=O)[C@](C)(O)[C@H]1[C@H](O)C[C@@]2(C)[C@@H]3CC=C4[C@@H](C=C(O)C(=O)C4(C)C)[C@]3(C)C(=O)C[C@]12C [CuE, cucurbitacin E] | −8.572% | −3.143% | −3.035% | −1.361% | 6.711% | 6.050% | 8.213% | 7.947% | −2.053% | −4.192% | 5.814% | 1.424% | remained stable | 682 ± 126 ng·h/mL | 603 ± 125 ng·h/mL | 166 ± 13.8 ng/mL | 2.25 ± 0.521 h | 5.99 ± 1.23 h | 973 ± 269 ng·h/mL | 752 ± 150 ng·h/mL | Cmax [2, 7]: 236 ± 31.9 ng/mL; Tmax [2, 7]: 1.67 ± 0.612 h; half-life [2, 7]: 7.05 ± 2.7 h |
